# From US4559360A, “Cysteine derivatives, a process for their preparation, and pharmaceutical compositions which contain them” (Magis Farmaceutici S.R.L., priority 1984, dated 1985)
# Experiments:
# Type in all cases: in vivo
# [1] = system: rats of Sprague-Dawley stock; test: Acute toxicity in the rat (LD50, Litchfield and Wilcoxon); conditions: 7 days observation
# Method: (§1) The acute toxicity of the proucts was studied on male and female adult mice of Swiss stock, and on male and female adult rats of Sprague-Dawley stock, by oral and subcutaneous administration. For each method of administration, the tested doses were administered in geometrical progression to 10 animals (5 males and 5 females). After treatment, the animals were kept under observation for 7 days. On termination of this period, the LD50 and the relative confidence limits were calculated by the Litchfield and Wilcoxon method (Pharmacol. Exp. Ther. 96-99, 1949).
# mice of Swiss stock = test: Acute toxicity in the mouse (LD50, Litchfield and Wilcoxon); conditions: 7 days observation
# Method: as §1
# [2] = Acute toxicity in the rat (LD50, Litchfield and Wilcoxon); conditions: in vivo, 7 days observation
# Method: as §1
# [3] = Acute toxicity in the mouse (LD50, Litchfield and Wilcoxon); conditions: in vivo, 7 days observation
# Method: as §1
Compound,LD50 ([1]; oral) [mg/kg],LD50 ([1]; subcutaneous) [mg/kg],LD50 (mice of Swiss stock; oral) [mg/kg],LD50 (mice of Swiss stock; subcutaneous) [mg/kg],LD50 at 168 h ([2]; oral) [mg/kg],"LD50 at 168 h ([2]; sc, subcutaneous) [mg/kg]",LD50 at 168 h ([3]; oral) [mg/kg],"LD50 at 168 h ([3]; sc, subcutaneous) [mg/kg]"
S-(carboxymethyl)-L-cysteine acetylsalicylanhydride [MSF 02],4800,4500,4600,4400,,,,
"CC(=O)Oc1ccccc1C(=O)N[C@@H](CSCC(=O)O)C(=O)O [MSF 01, S-(carboxymethyl)-N-(2-acetoxybenzoyl)-L-cysteine]",,,,,4800,4500,4800,4500
"CC(=O)Oc1ccccc1C(=O)OC(=O)CSC[C@H](N)C(=O)OC(=O)c1ccccc1OC(C)=O [MSF 03, S-carboxymethylcysteine bis-acetylsalicylanhydride]",,,,,4500,4200,4300,4100
